# According to patent US11472769B2, “SSAO inhibitors and use thereof” (Eccogene (Shanghai) Co., Ltd., priority 2019, dated 2022):
# Molecular target: recombinant hSSAO (Homo sapiens (Human), UniProt Q16853)
# Assay: SSAO Activity Assay (MAO-Glo assay kit)
# Assay type: biochemical
# Conditions: 40 μM substrate, 30 mins pre-incubation
# Experimental: The biological activities of the compounds of the present application can be assessed with methods and assays known in the art. For example, the potency of the compounds of the present application can be evaluated with an SSAO Activity Assay. Briefly, compounds of the present application can be applied to recombinant hSSAO, hMAO-A, and hMAO-B isoforms and the amine oxidase activity of the enzymes are measured after the addition and subsequent oxidation of the luminogenic substrate (e.g., with the MAO-Glo assay kit from Promega). The IC50 can be calculated, for example, by fitting the dose response curve using a 4-parameter non-linear regression routine.
# Amine oxidase activity of recombinant hSSAO, hMAO-A, and hMAO-B isoforms are measured using the MAO-Glo assay kit (Promega, V1402). Ten nL test compounds (with DMSO as vehicle, 0.1% v/v for hSSAO, hMAO-A and hMAO-B) were added into assay plates by Echo, and pre-incubated with 5 μL of enzyme for 30 mins at room temperature before the addition of 5 μL of luminogenic substrate. The substrate concentration is 40 μM for human recombinant SSAO, 40 μM for human recombinant MAO-A, and 4 μM for human recombinant MAO-B. The hSSAO and hMAO-A assays were conducted in the MAO-A reaction buffer in the kit, and the MAO-B assay was conducted in the MAO-B reaction buffer. Oxidation of the substrate was conducted for 1 hr, before the addition of detecting reagent according the manufacture's protocol. The IC50 value of the tested compounds was calculated by fitting the dose response curve using a 4-parameter non-linear regression routine.
# Sequence of recombinant hSSAO (Q16853 whole entry): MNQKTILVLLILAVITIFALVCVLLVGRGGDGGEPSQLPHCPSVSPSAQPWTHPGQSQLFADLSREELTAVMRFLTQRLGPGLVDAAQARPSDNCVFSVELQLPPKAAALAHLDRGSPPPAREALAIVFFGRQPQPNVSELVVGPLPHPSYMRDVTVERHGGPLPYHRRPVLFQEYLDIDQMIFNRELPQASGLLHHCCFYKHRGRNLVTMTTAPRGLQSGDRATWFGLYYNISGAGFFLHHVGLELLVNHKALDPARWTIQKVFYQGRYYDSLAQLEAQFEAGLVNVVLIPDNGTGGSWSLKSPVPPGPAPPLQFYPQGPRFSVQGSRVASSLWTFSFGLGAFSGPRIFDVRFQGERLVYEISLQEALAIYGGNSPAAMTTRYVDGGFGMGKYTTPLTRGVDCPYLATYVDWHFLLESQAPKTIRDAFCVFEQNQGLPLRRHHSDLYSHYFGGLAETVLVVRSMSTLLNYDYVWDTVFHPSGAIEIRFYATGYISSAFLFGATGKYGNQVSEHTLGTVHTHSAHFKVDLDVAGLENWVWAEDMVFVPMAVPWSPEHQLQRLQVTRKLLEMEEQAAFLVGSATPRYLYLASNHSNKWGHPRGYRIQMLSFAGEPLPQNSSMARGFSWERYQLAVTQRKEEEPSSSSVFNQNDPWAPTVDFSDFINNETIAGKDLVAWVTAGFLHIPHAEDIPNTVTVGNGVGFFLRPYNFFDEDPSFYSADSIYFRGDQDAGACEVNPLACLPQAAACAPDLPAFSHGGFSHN
row,Structure (SMILES),IC50
1,"CC1(C)COC(CS(=O)(=O)c2ccc(OC/C(=C/F)CN)cc2)CO1 (centres unmarked) [compound 2, (E)-2-((4-(((5,5-dimethyl-1,4-dioxan-2-yl)methyl)sulfonyl)phenoxy)methyl)-3-fluoroprop-2-en-1-amine]",20 to 100 nM
2,"NC/C(=C\F)COc1ccc(S(=O)(=O)CC2CCOCC2)c(F)c1 [compound 6, (E)-3-fluoro-2-((3-fluoro-4-(((tetrahydro-2H-pyran-4-yl)methyl)sulfonyl)phenoxy)methyl) prop-2-en-1-amine]",20 to 100 nM
3,"NC/C(=C\F)COc1ccc(S(=O)(=O)CC2(O)CCOCC2)cc1 [compound 10, (E)-4-(((4-((2-(aminomethyl)-3-fluoroallyl)oxy)phenyl)sulfonyl)methyl)tetrahydro-2H-pyran-4-ol]",20 to 100 nM
4,"COC1(CS(=O)(=O)c2ccc(OC/C(=C/F)CN)cc2)CCOCC1 [compound 11, (E)-3-fluoro-2-((4-(((4-methoxytetrahydro-2H-pyran-4-yl)methyl)sulfonyl)phenoxy)methyl) prop-2-en-1-amine]",20 to 100 nM
5,"NC/C(=C\F)COc1ccc(S(=O)(=O)CC23CCC(C4(NC(=O)C5CC5)CC4)(CC2)CC3)cc1 [compound 16, (E)-N-(1-(4-(((4-((2-(aminomethyl)-3-fluoroallyl)oxy)phenyl)sulfonyl)methyl)bicyclo[2.2.2]octan-1-yl)cyclopropyl) cyclopropanecarboxamide]",20 to 100 nM
6,"COCC(COC)CS(=O)(=O)c1ccc(OC/C(=C/F)CN)cc1 [compound 25, (E)-3-fluoro-2-((4-((3-methoxy-2-(methoxymethyl)propyl)sulfonyl)phenoxy)methyl)prop-2-en-1-amine]",20 to 100 nM
7,"NC/C(=C\F)COc1ccc(S(=O)(=O)COC2CCOCC2)cc1 [compound 26, (E)-3-fluoro-2-((4-((((tetrahydro-2H-pyran-4-yl)oxy)methyl)sulfonyl)phenoxy)methyl)prop-2-en-1-amine]",20 to 100 nM
8,"NC/C(=C\F)COc1ccc(S(=O)(=O)COC2CCN(C(=O)C3CCCC3)CC2)cc1 [compound 27, (E)-(4-(((4-((2-(aminomethyl)-3-fluoroallyl)oxy)phenyl)sulfonyl)methoxy)piperidin-1-yl)(cyclopentyl)methanone]",20 to 100 nM
9,"COCCOCS(=O)(=O)c1ccc(OC/C(=C/F)CN)cc1 [compound 29, (E)-3-fluoro-2-((4-(((2-methoxyethoxy)methyl)sulfonyl)phenoxy)methyl)prop-2-en-1-amine]",20 to 100 nM
10,"CC1(COCS(=O)(=O)c2ccc(OC/C(=C/F)CN)cc2)CCOCC1 [compound 31, (E)-3-fluoro-2-((4-((((4-methyltetrahydro-2H-pyran-4-yl)methoxy)methyl)sulfonyl)phenoxy)methyl)prop-2-en-1-amine]",20 to 100 nM
11,"N#CC1(COCS(=O)(=O)c2ccc(OC/C(=C/F)CN)cc2)CCOCC1 [compound 32, (E)-4-((((4-((2-(aminomethyl)-3-fluoroallyl)oxy)phenyl)sulfonyl)methoxy)methyl)tetrahydro-2H-pyran-4-carbonitrile]",20 to 100 nM
12,"CC(C)C(=O)N1CCC(C)(COCS(=O)(=O)c2ccc(OC/C(=C/F)CN)cc2)CC1 [compound 33, (E)-1-(4-((((4-((2-(aminomethyl)-3-fluoroallyl)oxy)phenyl)sulfonyl)methoxy)methyl)-4-methylpiperidin-1-yl)-2-methylpropan-1-one]",20 to 100 nM
13,"CC1(COCS(=O)(=O)c2ccc(OC/C(=C/F)CN)cc2)CCN(C(=O)C(C)(C)C)CC1 [compound 34, (E)-1-(4-((((4-((2-(aminomethyl)-3-fluoroallyl)oxy)phenyl)sulfonyl)methoxy)methyl)-4-methylpiperidin-1-yl)-2,2-dimethylpropan-1-one]",20 to 100 nM
14,"COCC(COC)OCS(=O)(=O)c1ccc(OC/C(=C/F)CN)cc1 [compound 36, (E)-2-((4-((((1,3-dimethoxypropan-2-yl)oxy)methyl)sulfonyl)phenoxy)methyl)-3-fluoroprop-2-en-1-amine]",20 to 100 nM
15,"CC(C)(C)C(=O)N1CCC(CS(=O)(=O)c2ccc(OC/C(=C/F)CN)cc2)CC1 [compound 41, (E)-1-(4-(((4-((2-(aminomethyl)-3-fluoroallyl)oxy)phenyl)sulfonyl)methyl)piperidin-1-yl)-2,2-dimethylpropan-1-one]",20 to 100 nM
16,"CC(C)C(=O)Nc1ccc(CS(=O)(=O)c2ccc(OC/C(=C/F)CN)cc2)cc1 [compound 45, (E)-N-(4-(((4-((2-(aminomethyl)-3-fluoroallyl)oxy)phenyl)sulfonyl)methyl)phenyl)isobutyramide]",20 to 100 nM

row,Structure (SMILES),IC50
1,"CC(C)C(=O)N1CC(CS(=O)(=O)c2ccc(OC/C(=C/F)CN)cc2)C1 [compound 52, (E)-1-(3-(((4-((2-(aminomethyl)-3-fluoroallyl)oxy)phenyl)sulfonyl)methyl)azetidin-1-yl)-2-methylpropan-1-one]",20 to 100 nM
2,"CC(C)C(=O)N1CCC(C)(CS(=O)(=O)c2ccc(OC/C(=C/F)CN)cc2)CC1 [compound 53, (E)-1-(4-(((4-((2-(aminomethyl)-3-fluoroallyl)oxy)phenyl)sulfonyl)methyl)-4-methylpiperidin-1-yl)-2-methylpropan-1-one]",20 to 100 nM
3,"NC/C(=C\F)COc1ccc(S(=O)(=O)CC2CCN(C(=O)C3CC3)CC2)c(Cl)c1 [compound 60, (E)-(4-(((4-((2-(aminomethyl)-3-fluoroallyl)oxy)-2-chlorophenyl)sulfonyl)methyl)piperidin-1-yl)(cyclopropyl)methanone]",20 to 100 nM
4,"NC/C(=C\F)COc1ccc(S(=O)(=O)CC23CCC(C(=O)N4CCC(F)(F)CC4)(CC2)CC3)cc1 [compound 63, (E)-(4-(((4-((2-(aminomethyl)-3-fluoroallyl)oxy)phenyl)sulfonyl)methyl)bicyclo[2.2.2]octan-1-yl)(4,4-difluoropiperidin-1-yl)methanone]",20 to 100 nM
5,"CN(C(=O)C1CC1)C12CCC(CS(=O)(=O)c3ccc(OC/C(=C/F)CN)cc3)(CC1)CC2 [compound 78, (E)-N-(4-(((4-((2-(aminomethyl)-3-fluoroallyl)oxy)phenyl)sulfonyl)methyl)bicyclo[2.2.2]octan-1-yl)-N-methylcyclopropanecarboxamide]",20 to 100 nM
6,"CC(C)N(C)C(=O)C(C)(C)CS(=O)(=O)c1ccc(OC/C(=C/F)CN)cc1 [compound 95, (E)-3-((4-((2-(aminomethyl)-3-fluoroallyl)oxy)phenyl)sulfonyl)-N-isopropyl-N,2,2-trimethylpropanamide]",100 to 500 nM
7,"CCN(CC(C)CS(=O)(=O)c1ccc(OC/C(=C/F)CN)cc1)C(=O)C(C)C (centres unmarked) [compound 97, (E)-N-(3-((4-((2-(aminomethyl)-3-fluoroallyl)oxy)phenyl)sulfonyl)-2-methylpropyl)-N-ethylisobutyramide]",20 to 100 nM
8,"CC(C)n1ccc(CS(=O)(=O)c2ccc(OC/C(=C/F)CN)cc2)cc1=O [compound 101, (E)-4-(((4-((2-(aminomethyl)-3-fluoroallyl)oxy)phenyl)sulfonyl)methyl)-1-isopropylpyridin-2(1H)-one]",20 to 100 nM
9,"NC/C(=C\F)COc1ccc(S(=O)(=O)Cc2cnc(N3CCCC3)nc2)cc1 [compound 103, (E)-3-fluoro-2-((4-(((2-(pyrrolidin-1-yl)pyrimidin-5-yl)methyl)sulfonyl)phenoxy)methyl) prop-2-en-1-amine]",20 to 100 nM
10,"NC/C(=C\F)COc1ccc(S(=O)(=O)CC2(CN3CCCCC3=O)CC2)cc1 [compound 106, (E)-1-((1-(((4-((2-(aminomethyl)-3-fluoroallyl)oxy)phenyl)sulfonyl)methyl)cyclopropyl)methyl)piperidin-2-one]",20 to 100 nM
11,"C[C@@H](CS(=O)(=O)c1ccc(OC/C(=C/F)CN)cc1)N1CCCCC1=O [compound 108, (S,E)-1-(1-((4-((2-(aminomethyl)-3-fluoroallyl)oxy)phenyl)sulfonyl)propan-2-yl)piperidin-2-one]",20 to 100 nM
12,"CC(C)(CN1CCOCC1)CS(=O)(=O)c1ccc(OC/C(=C/F)CN)cc1 [compound 115, (E)-2-((4-((2,2-dimethyl-3-morpholinopropyl)sulfonyl)phenoxy)methyl)-3-fluoroprop-2-en-1-amine]",20 to 100 nM
13,"NC/C(=C\F)COc1ccc(S(=O)(=O)CN2CCCC2=O)cc1 [compound 117, (E)-1-(((4-((2-(aminomethyl)-3-fluoroallyl)oxy)phenyl)sulfonyl)methyl)pyrrolidin-2-one]",100 to 500 nM
14,"NC/C(=C\F)COc1ccc(S(=O)(=O)Cn2ccccc2=O)cc1 [compound 121, (E)-1-(((4-((2-(aminomethyl)-3-fluoroallyl)oxy)phenyl)sulfonyl)methyl)pyridin-2(1H)-one]",20 to 100 nM
15,"CC(C)N1CCN(CS(=O)(=O)c2ccc(OC/C(=C/F)CN)cc2)C(=O)C1 [compound 135, (E)-1-(((4-((2-(aminomethyl)-3-fluoroallyl)oxy)phenyl)sulfonyl)methyl)-4-isopropylpiperazin-2-one]",20 to 100 nM
16,"NC/C(=C\F)COc1ccc(S(=O)(=O)CC23CC(C(=O)NC4CCC4)(C2)C3)cc1 [compound 138, (E)-3-(((4-((2-(aminomethyl)-3-fluoroallyl)oxy)phenyl)sulfonyl)methyl)-N-cyclobutylbicyclo[1.1.1]pentane-1-carboxamide]",20 to 100 nM
